Laboratory results from paper PMC2915818 (2010).

Columns and labels:
[1] = tested on: HT24 (DNA, G4) TAGGGTTAGGGTTAGGGTTAGGGT; assay: fluorescence titration, Equispec fit; conditions: 185 mM K+, 185 mM Na+ (as KCl, NaCl); sodium phosphate, 1 mM EDTA, pH 7, 25 °C; excitation 252 nm; 0.2 μM compound
[2] = tested on: 24bcl (DNA, G4) CGGGCGCGGGAGGAAGGGGGCGGG; assay: fluorescence titration, Equispec fit; conditions: 185 mM K+, 185 mM Na+ (as KCl, NaCl); sodium phosphate, 1 mM EDTA, pH 7, 25 °C; excitation 252 nm; 0.2 μM compound
[3] = tested on: cmyc (DNA, G4) GGGGAGGGTGGGGAGGGTGGGGAAGGTGGGG; assay: fluorescence titration, Equispec fit; conditions: 185 mM K+, 185 mM Na+ (as KCl, NaCl); sodium phosphate, 1 mM EDTA, pH 7, 25 °C; excitation 252 nm; 0.2 μM compound
[4] = tested on: TC triplex (DNA, triplex) CCTCCTCTCTTTCCCTTTTTCTTTCTCTCCTCC/GAAAGAGAGGAGG; assay: competitive dialysis; conditions: 185 mM KCl, 185 mM NaCl; sodium phosphate, 1 mM EDTA, pH 7, room temperature; 50 μM DNA, 1 μM compound
[5] = tested on: Ds26 (DNA, duplex) CAATCGGATCGAATTCGATCCGATTG; assay: competitive dialysis; conditions: 185 mM KCl, 185 mM NaCl; sodium phosphate, 1 mM EDTA, pH 7, room temperature; 50 μM DNA, 1 μM compound
[6] = tested on: Dickerson (DNA, duplex) CGCGAATTCGCG; assay: fluorescence titration; conditions: 185 mM K+, 185 mM Na+ (as KCl, NaCl); sodium phosphate, 1 mM EDTA, pH 7, 25 °C; up to 10 μM DNA, 0.2 μM compound
[7] = tested on: 24bcl (DNA, G4) CGGGCGCGGGAGGAAGGGGGCGGG; assay: competitive dialysis; conditions: 185 mM KCl, 185 mM NaCl; sodium phosphate, 1 mM EDTA, pH 7, room temperature; 50 μM DNA, 1 μM compound
[8] = tested on: cmyc (DNA, G4) GGGGAGGGTGGGGAGGGTGGGGAAGGTGGGG; assay: competitive dialysis; conditions: 185 mM KCl, 185 mM NaCl; sodium phosphate, 1 mM EDTA, pH 7, room temperature; 50 μM DNA, 1 μM compound

SMILES: CC(=O)NCCN(CC(=O)NCCN(CC(=O)NCCCCCCO)C(=O)CNC(=O)c1c2ccccc2nc2ccccc12)C(=O)CNC(=O)c1c2ccccc2nc2ccccc12
- log K [1]: 4.6 ± 0.5
- log K [2]: 5.1 ± 0.1
- log K [3]: 4.9 ± 0.2

SMILES: CC(=O)NCCN(CC(=O)NCCN(CC(=O)NCCCCCCOC(=O)CCC(=O)N(C)CC(N)=O)C(=O)CNC(=O)c1c2ccccc2nc2ccccc12)C(=O)CNC(=O)c1c2ccccc2nc2ccccc12
- log K [1]: 4.9 ± 0.4
- binding [4]: weak
- log K [2]: 6.8 ± 0.5
- binding [5]: no
- binding [6]: no
- log K [3]: 5.5 ± 0.3

SMILES: CC(=O)NCCN(CC(=O)NCCN(CC(=O)NCCN(CC(=O)NCCCCCCO)C(=O)CNC(=O)c1c2ccccc2nc2ccccc12)C(=O)CNC(=O)c1c2ccccc2nc2ccccc12)C(=O)CNC(=O)c1c2ccccc2nc2ccccc12
- log K [3]: 5.3 ± 0.2
- binding [7]: yes

SMILES: CC(=O)NCCN(CC(=O)NCCN(CC(=O)NCCN(CC(=O)NCCCCCCOC(=O)CCC(=O)N(C)CC(N)=O)C(=O)CNC(=O)c1c2ccccc2nc2ccccc12)C(=O)CNC(=O)c1c2ccccc2nc2ccccc12)C(=O)CNC(=O)c1c2ccccc2nc2ccccc12
- log K [1]: 5.3 ± 0.3
- log K [2]: 5.3 ± 0.2
- log K [3]: 4.8 ± 0.5

SMILES: O=C(O)CNC(=O)c1c2ccccc2nc2ccccc12
- binding [8]: yes
- binding [5]: weak
- binding [7]: yes

SMILES: O=C(O)c1c2ccccc2nc2ccccc12
- binding [5]: yes
